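Following 48 hours of exposure in 96-well plates, responses at five concentrations were used to interpolate endpoints linearly. Here, GI50 denotes the concentration required for 50% inhibition of growth.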 The source made the active and inactive calls. Rule as the data show it: active = GI50 up to about 1.1 µM and inactive = higher.
How the values were obtained:
Experiment in all cases: DTP human tumour cell line panel, 48 h
NCI-H23 = test system: NCI-H23
NCI-H226 = test system: NCI-H226
SNB-75 = test system: SNB-75
ACHN = test system: ACHN
HOP-92 = test system: HOP-92
SN12C = test system: SN12C
A498 = test system: A498
UACC-257 = test system: UACC-257
SK-MEL-2 = test system: SK-MEL-2
U-251 = test system: U-251
NCI/ADR-RES = test system: NCI/ADR-RES
786-0 = test system: 786-0
UO-31 = test system: UO-31
SK-OV-3 = test system: SK-OV-3
MDA-MB-231 = test system: MDA-MB-231
MOLT-4 = test system: MOLT-4
SF-539 = test system: SF-539
SF-295 = test system: SF-295
DU-145 = test system: DU-145
NCI-H522 = test system: NCI-H522

Measured: GI50

CC1=CSC(O)(c2ccc(Cl)cc2)c2noc(=O)n21 (stereo not drawn)
inactive: NCI-H23 48.4 µM | NCI-H226 > 100 µM | SNB-75 61.7 µM | ACHN > 100 µM | HOP-92 94.8 µM | SN12C > 100 µM | A498 > 100 µM | UACC-257 24.4 µM | SK-MEL-2 85.9 µM | U-251 > 10 µM | NCI/ADR-RES 53.7 µM | 786-0 > 100 µM | UO-31 58.1 µM | SK-OV-3 > 100 µM | MDA-MB-231 > 100 µM | MOLT-4 > 100 µM | SF-539 > 100 µM | SF-295 > 100 µM | DU-145 > 100 µM

COc1cc(OCc2ccc3nc(-c4ccccc4)c(N)nc3c2)cc(OC)c1OC
inactive: NCI-H226 21.3 µM | NCI-H522 13.6 µM | SNB-75 19.2 µM | ACHN 20.8 µM | HOP-92 11.4 µM | SN12C 25.7 µM | A498 27.1 µM | UACC-257 25 µM | SK-MEL-2 19.9 µM | U-251 32.5 µM | NCI/ADR-RES 20.7 µM | 786-0 30.8 µM | UO-31 10.7 µM | MDA-MB-231 25.5 µM | MOLT-4 8.13 µM | SF-539 20.7 µM | SF-295 26 µM | DU-145 22.2 µM

Cc1ccc(N/C(Sc2ccccc2)=C(/C(Cl)=C(Cl)Cl)[N+](=O)[O-])c(C)c1
inactive: NCI-H23 22.9 µM | NCI-H226 24.6 µM | NCI-H522 17.8 µM | ACHN 32.8 µM | HOP-92 14 µM | SN12C 18.4 µM | A498 21.8 µM | UACC-257 18.2 µM | SK-MEL-2 19.5 µM | U-251 13.8 µM | NCI/ADR-RES 23.7 µM | 786-0 16.5 µM | SK-OV-3 37.8 µM | MDA-MB-231 18.9 µM | MOLT-4 19.6 µM | SF-539 21.7 µM | SF-295 25.1 µM | DU-145 36.1 µM

Cc1ccc(S(=O)(=O)N2CCN(CCO)CCN(S(=O)(=O)c3ccc(C)cc3)CCN(CCO)CC2)cc1
inactive: NCI-H23 18.2 µM | NCI-H226 20.9 µM | NCI-H522 18.7 µM | SNB-75 26.3 µM | ACHN 31 µM | HOP-92 21.5 µM | SN12C 45 µM | A498 24.7 µM | UACC-257 10.3 µM | SK-MEL-2 16.5 µM | U-251 25.4 µM | NCI/ADR-RES 18.5 µM | 786-0 23.6 µM | UO-31 22.6 µM | MDA-MB-231 21.7 µM | MOLT-4 19.7 µM | SF-539 15.8 µM | SF-295 31.7 µM | DU-145 15 µM

O=C1OC(c2ccccc2)=N/C1=C\c1cccc(F)c1
inactive: NCI-H23 > 100 µM | NCI-H226 25.9 µM | NCI-H522 16 µM | SNB-75 64.3 µM | ACHN > 100 µM | HOP-92 > 100 µM | SN12C > 100 µM | A498 > 100 µM | UACC-257 32.7 µM | SK-MEL-2 > 100 µM | U-251 38.1 µM | NCI/ADR-RES 27.7 µM | 786-0 51.9 µM | UO-31 > 100 µM | SK-OV-3 > 100 µM | MDA-MB-231 > 100 µM | MOLT-4 32.3 µM | SF-295 40.8 µM | DU-145 > 100 µM

Cc1ccc(-c2c3c(n(C4OC(CO)C(O)C(O)C4O)c(=S)c2C#N)CC(C)(C)CC3=O)cc1 (stereo not drawn)
inactive: NCI-H23 > 100 µM | NCI-H226 48.6 µM | NCI-H522 > 100 µM | SNB-75 49.1 µM | ACHN 65.5 µM | HOP-92 68.7 µM | SN12C > 100 µM | A498 > 100 µM | UACC-257 > 100 µM | SK-MEL-2 80.9 µM | U-251 52.4 µM | NCI/ADR-RES > 100 µM | 786-0 47.4 µM | UO-31 60 µM | MDA-MB-231 80.5 µM | MOLT-4 36.5 µM | SF-539 39.6 µM | SF-295 > 100 µM | DU-145 > 100 µM

O=C(O)CCCC(=O)Nn1c(Cc2ccc(Cl)cc2)n[nH]c1=O
inactive: NCI-H23 > 100 µM | NCI-H226 > 100 µM | NCI-H522 71.8 µM | SNB-75 > 10 µM | ACHN > 100 µM | HOP-92 > 100 µM | SN12C > 100 µM | A498 71.6 µM | UACC-257 > 100 µM | SK-MEL-2 > 100 µM | U-251 > 100 µM | NCI/ADR-RES > 100 µM | 786-0 > 100 µM | UO-31 14.9 µM | SK-OV-3 > 100 µM | MDA-MB-231 > 100 µM | MOLT-4 > 100 µM | SF-295 > 100 µM | DU-145 > 100 µM

CC1(C)[C@@H](Cn2cnc3c(Cl)nc(N)nc32)CC[C@@]1(C)CO
inactive: NCI-H226 12.7 µM | SNB-75 > 100 µM | ACHN > 100 µM | HOP-92 > 100 µM | SN12C 57.3 µM | A498 > 100 µM | UACC-257 30.4 µM | SK-MEL-2 18.5 µM | U-251 > 100 µM | NCI/ADR-RES 83.4 µM | 786-0 > 100 µM | UO-31 3.74 µM | SK-OV-3 > 100 µM | MDA-MB-231 21.3 µM | SF-539 > 100 µM | SF-295 > 100 µM | DU-145 > 100 µM

From ChEMBL document CHEMBL1201862, “PubChem BioAssay data set” (2004)
